Laboratory results reported in patent US20220274938A1, “5-[(1S)-1-(4-BROMOPHENOXY)ETHYL]-2H-TETRAZOLE DERIVATIVES AND RELATED COMPOUNDS AS CLC-1 ION CHANNEL INHIBITORS FOR TREATING NEUROMUSCULAR DISORDERS” (NMD PHARMA A/S, priority 2019, published 2022).

Key:
[1] = tested on: isolated rat soleus muscles; experiment: Measurement of force in an in vitro model: isolated rat soleus nerve-muscle preparation with tubocurarine; assay type: cell-based; settings: Rattus norvegicus, 40 min; 50 μM test compound, after 40 mins of compound exposure; 115 nM tubocurarine for 90 mins; read-out: Point increase (%) of initial force that was restored
Method: FIG. 2. […] Force traces from a representative muscle stimulated to contract in 1) control condition before addition of neuromuscular blocking agent, 2) the force response to stimulation after 90 minutes incubation with Tubocurarine. […] The traces presented in panel A (1, 2, 3), correspond to the dotted lines in panel B, respectively.
Recovery of force is quantified as the percentage of the force prior to tubocurarine that is recovered by the compound.
The current disclosure relates to compounds that inhibit CIC-1 ion channels and increase muscle excitability and thereby improve muscle function in clinical conditions where muscle activation is failing. Such conditions result in loss of contractile function of skeletal muscle, weakness and excessive fatigue. In this series of experiments the compounds were tested for their ability to restore contractile function of isolated rat muscle when the neuromuscular transmission had been compromised akin to neuromuscular disorders.
Experimentally, soleus muscles from 4-5 week old rats were isolated with the motor nerve remaining attached. The nerve-muscle preparations were mounted in experimental setups that enabled electrical stimulation of the motor nerve. Stimulation of the motor nerve led to activation of the muscle fibres and ensuing force production that was recorded. The nerve-muscle preparations were also in these experiments incubated in the standard Krebs Ringer (see example 5) and the solution was heated to 30° C. and continuously equilibrated with a mixture of 95% O2 and 5% CO2, pH˜7.4.
After mounting the nerve-muscle preparation in the experimental setup, the contractile function of the muscle was initially assessed under the control conditions (FIG. 2A). […] The experimental condition mimics the failing neuromuscular transmission in a range of neuromuscular disorders. After addition of tubocurarine the contractile force declined over the next 90 mins to 10-50% of the control force. 50 μM of the test compound was then added and the contractile force recovered despite the continued presence of tubocurarine. To quantify the ability of the compound to restore force the percentage of the initial force that was restored was determined after 40 mins of compound exposure (FIG. 2B) and the point increase is reported in Table 3.

[2] = biological target: T1, human CIC-1 channels (Homo sapiens, UniProt P35523); experiment: Automated patch-clamp on the human isoform of CIC-1 expressed in CHO cells; assay type: cell-based; settings: compound added to the intracellular solution vs control cell patches, positive shift reflects inhibition
T1 construct: host or cells: CHO (Chinese hamster ovary) cells, cryopreserved, used directly after thawing
T1 sequence (P35523 whole entry, canonical isoform): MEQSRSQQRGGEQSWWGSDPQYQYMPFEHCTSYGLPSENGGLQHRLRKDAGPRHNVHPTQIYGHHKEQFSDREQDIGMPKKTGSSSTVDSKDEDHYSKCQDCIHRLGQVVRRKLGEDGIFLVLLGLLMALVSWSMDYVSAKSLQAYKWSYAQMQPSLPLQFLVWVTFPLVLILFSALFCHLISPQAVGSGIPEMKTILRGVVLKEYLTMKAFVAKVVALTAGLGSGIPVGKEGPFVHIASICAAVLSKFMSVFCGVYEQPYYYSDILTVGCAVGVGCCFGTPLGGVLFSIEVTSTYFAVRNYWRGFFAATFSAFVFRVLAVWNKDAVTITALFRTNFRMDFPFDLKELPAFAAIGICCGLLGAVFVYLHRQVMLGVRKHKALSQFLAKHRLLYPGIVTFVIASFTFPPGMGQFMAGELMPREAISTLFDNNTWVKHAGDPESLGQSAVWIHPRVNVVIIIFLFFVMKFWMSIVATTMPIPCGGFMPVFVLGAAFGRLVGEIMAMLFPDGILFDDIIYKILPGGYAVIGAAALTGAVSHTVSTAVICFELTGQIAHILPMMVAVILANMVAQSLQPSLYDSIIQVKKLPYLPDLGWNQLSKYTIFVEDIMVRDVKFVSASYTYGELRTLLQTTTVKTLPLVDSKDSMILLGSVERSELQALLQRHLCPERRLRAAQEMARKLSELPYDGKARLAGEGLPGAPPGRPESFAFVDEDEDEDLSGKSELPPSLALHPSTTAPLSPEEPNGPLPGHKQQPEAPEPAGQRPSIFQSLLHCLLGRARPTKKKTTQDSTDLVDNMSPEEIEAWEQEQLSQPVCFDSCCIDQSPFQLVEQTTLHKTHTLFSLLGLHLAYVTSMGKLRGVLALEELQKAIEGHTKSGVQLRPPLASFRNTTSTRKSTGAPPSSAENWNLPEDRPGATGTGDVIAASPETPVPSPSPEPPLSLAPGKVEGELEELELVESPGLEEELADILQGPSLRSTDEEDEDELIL
Method: The investigatory goal of these experiments was to evaluate how compounds affect the open probability and current amplitude of human CIC-1 channels expressed in CHO cells. Experiments were performed using an automated patch clamp system that allowed high throughput testing of whole cell patches together with both intracellular and extracellular addition of compound.
Automated whole cell patch clamp experiments were performed with the Qpatch 16 system (Sophion Bioscience, Ballerup, Denmark) at room temperature. Data acquisition and analysis were performed in the Qassay software (ver. 5.6, Odense).
To obtain tail currents, the membrane potential was stepped to −100 mV after each test voltage for 300 ms and then relaxed to −30 mV for 2 sec between sweeps (FIG. 3). I/V relationships for whole cell instant and steady state current amplitudes were obtained by plotting average current densities at the beginning and at the end of the 300 ms step against the membrane potential (FIG. 4).
In order to determine the relative overall open probability (Po), the instantaneous tail currents were normalized to the maximal tail current obtained following the most positive voltage step and plotted against the test voltage. Plots of normalized tail currents from each whole cell patch were then fitted to a Boltzmann function allowing determination of half activation voltages (V1/2, FIG. 5).
Osmolality adjusted to ˜320 using sucrose. Intracellular solutions contained: 80 mM CsF, 60 mM CsCl, 5/1 mM KOH/EGTA, 10 mM HEPES, 10 mM NaCl, pH adjusted to 7.2 with NaOH (2 M). Osmolality adjusted to ˜320 mOsm using sucrose.
Cells used in patch clamp experiments were Chinese hamster ovary cells (CHO) constitutively expressing human CIC-1 channels. The amino acid sequence encoded by the cDNA used to create this cell line was identical to the translated sequence for GenBank accession number NM_000083.2. Cells were produced by Charles River (Catalogue CT6175, Cleveland Ohio, USA) in a cryopreserved format. Experiments were performed on the cells directly after thawing (3×10^6 cells used in each experiment).
To evaluate the compound effect on CIC-1, when applied directly to the intracellular side of the cell membrane, the half activation voltage, V1/2, was determined from whole cell patches with compound added to the intracellular solution and then compared to V1/2 determined from control cell patches with only vehicle added to the intracellular solution. Additionally, the effect of extracellular added compound was evaluated by determine V1/2 and steady state current amplitudes before and after exchanging the extracellular solution to contain compound.
The difference in half activation voltage of CIC-1 channels, ΔV1/2, was determined as the difference between the cell patches treated intracellularly with compound and control cells patches and is reported in Table 4 below. A positive shift in ΔV1/2 is reflecting CIC-1 channel inhibition by the tested compound. P-values of <0.05 is considered significant.

Structure (SMILES) | activation at 50 µM [1] [%] | ΔV1/2 (difference in half activation voltage of CIC-1 channels) [2] [mV]
C[C@H](Oc1ccc(Cl)cc1)C(=O)NOC1CCC1 [Compound C-80, (2S)-2-(4-chlorophenoxy)-N-cyclobutoxypropanamide] | 47 | 9.9
C[C@H](Oc1ccc(Br)cc1F)c1nn[nH]n1 [Compound E-8, 5-[(1S)-1-(4-bromo-2-fluorophenoxy)ethyl]-2H-1,2,3,4-tetrazole] | 34 | 38.4
